# Measured values published in article PMC6694155, “PTPσ inhibitors promote hematopoietic stem cell regeneration” (Nature Communications, 2019).
# Where “and” joins values, the source holds several entries; their conditions need not be identical. Equal values may be shown once.
# Key:
# [1] = biological target: T1, LMPTP-A (Low Molecular Weight Protein Tyrosine Phosphatase A) (Homo sapiens, UniProt P24666); test: PhosphataseProfiler screen: LMPTP-A; format: biochemical; settings: replicates
# T1 construct: purchased Eurofins Pharma Discovery Services UK
# T1 sequence (P24666 whole entry, species assumed): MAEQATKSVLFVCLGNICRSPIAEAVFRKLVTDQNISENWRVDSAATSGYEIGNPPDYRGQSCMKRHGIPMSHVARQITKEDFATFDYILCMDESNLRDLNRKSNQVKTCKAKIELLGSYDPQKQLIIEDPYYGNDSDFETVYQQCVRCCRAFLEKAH
# Method: (§1) Compound DJ001 was evaluated in a PhosphataseProfiler™ screen at 10 μM and 1 μM (2.7 μg/mL and 0.27 μg/mL) concentrations at Eurofins Pharma Discovery Services UK (Study number UK022-0004033) against a panel of 21 Phosphatases. In each experiment, the respective reference antagonist/agonist was tested directly with DJ001 and the data were compared with historical values determined at Eurofins. DJ001 compound inhibition was calculated as percentage inhibition of the enzymatic activity compared with control.
# [2] = biological target: T2, RPTPμ (Receptor Protein Tyrosine Phosphatase Mu) (Homo sapiens, UniProt P28827); test: PhosphataseProfiler screen: RPTPμ; format: biochemical; settings: replicates
# T2 construct: purchased Eurofins Pharma Discovery Services UK
# T2 sequence (P28827 21-1452, species assumed): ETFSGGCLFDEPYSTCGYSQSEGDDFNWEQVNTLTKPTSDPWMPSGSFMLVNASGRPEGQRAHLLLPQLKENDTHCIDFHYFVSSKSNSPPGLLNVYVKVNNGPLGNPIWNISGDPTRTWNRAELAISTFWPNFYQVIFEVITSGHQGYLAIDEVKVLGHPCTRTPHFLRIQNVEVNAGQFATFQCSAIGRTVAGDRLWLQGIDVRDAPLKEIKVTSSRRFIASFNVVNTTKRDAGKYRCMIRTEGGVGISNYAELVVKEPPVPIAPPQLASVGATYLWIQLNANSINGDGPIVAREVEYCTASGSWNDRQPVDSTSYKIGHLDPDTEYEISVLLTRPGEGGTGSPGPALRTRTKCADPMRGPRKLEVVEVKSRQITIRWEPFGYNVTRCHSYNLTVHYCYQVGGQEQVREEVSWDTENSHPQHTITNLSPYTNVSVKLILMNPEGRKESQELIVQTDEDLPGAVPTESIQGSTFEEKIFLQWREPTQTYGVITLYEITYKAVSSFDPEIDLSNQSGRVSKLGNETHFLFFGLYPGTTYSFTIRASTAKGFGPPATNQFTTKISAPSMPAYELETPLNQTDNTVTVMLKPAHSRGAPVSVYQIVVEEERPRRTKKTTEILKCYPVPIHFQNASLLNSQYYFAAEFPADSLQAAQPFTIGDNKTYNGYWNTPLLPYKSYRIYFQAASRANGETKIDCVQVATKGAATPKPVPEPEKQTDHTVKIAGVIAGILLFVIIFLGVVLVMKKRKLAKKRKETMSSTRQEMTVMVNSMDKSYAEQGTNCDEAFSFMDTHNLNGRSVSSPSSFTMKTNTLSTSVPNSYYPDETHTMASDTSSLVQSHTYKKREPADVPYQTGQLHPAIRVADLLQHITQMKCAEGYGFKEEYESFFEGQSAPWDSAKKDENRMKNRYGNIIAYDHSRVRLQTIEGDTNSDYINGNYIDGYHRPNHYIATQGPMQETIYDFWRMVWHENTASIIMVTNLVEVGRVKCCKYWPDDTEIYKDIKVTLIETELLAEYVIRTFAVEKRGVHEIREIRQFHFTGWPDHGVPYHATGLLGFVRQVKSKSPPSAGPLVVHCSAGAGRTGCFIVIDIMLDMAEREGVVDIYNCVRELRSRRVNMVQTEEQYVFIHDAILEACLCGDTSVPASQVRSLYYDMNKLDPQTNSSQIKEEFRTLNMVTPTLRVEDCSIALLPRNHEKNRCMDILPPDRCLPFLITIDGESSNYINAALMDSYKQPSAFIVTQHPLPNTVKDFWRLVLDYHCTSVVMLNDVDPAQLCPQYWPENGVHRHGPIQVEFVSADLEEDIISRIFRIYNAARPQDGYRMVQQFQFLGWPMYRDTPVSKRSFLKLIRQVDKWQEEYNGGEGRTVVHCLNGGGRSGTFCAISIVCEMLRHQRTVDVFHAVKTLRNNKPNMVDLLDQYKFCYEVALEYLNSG
# Method: as §1
# [3] = system: CDC42-GTP in BM lin− cells; test: G-LISA activation assay: CDC42-GTP; format: cell-based, mouse; settings: for CDC42-GTP level (G-LISA): Supplementary Figure 7b (right panel)
# Method: The RAC1-GTP, RHOA-GTP, and CDC42-GTP activation levels in BM lin^− cells were measured using a colorimetric-based RAC1-, RHOA-, and CDC42 G-LISA Activation Assay Kit (Cytoskeleton, Inc.). BM cells from femurs and tibias were isolated from 12-week-old Ptprs^+/+ and Ptprs^−/− mice. Cells were then depleted of lineage-committed cells with Direct Lineage Cell Depletion Kit (Miltenyi Biotec, #130-110-470; 1:5). The BM lin^− cell fraction was then serum starved in Iscove’s modified Dulbecco’s medium (IMDM) and treated with either vehicle (equal amount of DMSO) or 1 μg/mL DJ001 for 10 min at 37 °C. After treatment, cells were washed with ice-cold PBS and then placed in lysis buffer supplemented with protease inhibitor. Lysate concentrations were measured by Pierce^TM BCA Protein Assay Kit (ThermoFisher Scientific). G-LISA was performed according to the manufacturer’s instructions. Briefly, 12.5 μg of lysates was added to a GTP-binding protein pre-coated plate and active RAC1-GTP, RHOA-GTP, or CDC42-GTP levels were measured at 490 nm using a PowerWave XS2 microplate reader (BioTek).
# BM KSL cells = test: Cytokine analysis in vitro (BM KSL cell culture supernatants); format: cell-based, mouse; parameters: PTN: unit not given beside the values; IL-5 / IL-6 / IL-9 / IL-10 / IL-12(p40) / IL-12(p70) / IL-13 / IL-17 / IP-10 / CXCL12 / EGF / DKK / G-CSF / Eotaxin / GM-CSF / KC / MCP-1 / MIP-1a / M-CSF / MIP-2 / MIG / RANTES / VEGF / TNF-a / IFN-g / IL-1a / IL-1b / IL-2 / IL-4 / IL-3: unit not given here; settings: for IFN-g / IL-1a / IL-1b / IL-2 / IL-3 / IL-4 / IL-5 / IL-6 / IL-9 / IL-10 / IL-12(p40) / IL-12(p70) / IL-13 / IL-17 / IP-10: Supplementary Figure 6a; for CXCL12 / DKK / EGF / Eotaxin / G-CSF / GM-CSF / KC / M-CSF / MCP-1 / MIG / MIP-1a / MIP-2 / PTN / RANTES / TNF-a / VEGF: Supplementary Figure 6b
# Method: For in vitro cytokine measurements, 3.5 × 10^4 BM KSL cells were irradiated with 300 cGy and cultured in TSF media with and without 1 μg/mL DJ001. Non-irradiated KSL cells were cultured in TSF media with and without 1 μg/mL DJ001. At 12 h of culture, culture supernatants were collected for analysis. For in vivo cytokine measurements, adult C57BL/6 mice were irradiated with 750 cGy TBI and then treated with 5 mg/kg of DJ001 or vehicle, subcutaneously, from day + 1 to day + 5. Non-irradiated mice received the identical regimen of 5 mg/kg DJ001 or vehicle for 5 days. Mice were killed and BM cells were collected into IMDM. Cells were pelleted and the BM supernatant was collected and sent to the UCLA Immune Assessment Core for cytokine analysis. All samples were tested on a mouse 32-plex Cytokine/Chemokine panel platform from EMD Milipore using Luminex’s xMAP® immunoassay technology (Luminex, Inc.). In addition, the following cytokine levels were assessed by solid-phase ELISA assay according to the manufacturer’s description: CXCL12 (R&D Systems), SCF (R&D Systems), Thrombopoietin (TPO) (R&D Systems), PTN (Biomatik), DKK1 (R&D Systems), and EGF (R&D Systems).
structure (smiles),measurement,setting,value
"O=C(/C=C\Nc1cccc([N+](=O)[O-])c1)c1ccccc1 [DJ001, (Z)-3-((3-nitrophenyl)amino)-1-phenylprop-2-en-1-one]",Supplementary Figure 1: LMPTP-A activity,[1]; 0.27 g/mL DJ001,100 and 90 and 93
same,Supplementary Figure 1: LMPTP-A activity,[1]; 2.7 g/mL DJ001,78 and 84 and 89
same,Supplementary Figure 1: RPTP activity,[2]; 2.7 μg/mL DJ001,83 and 98 and 86
same,Supplementary Figure 1: RPTP activity,[2]; 0.27 g/mL DJ001,92 and 99 and 95
same,activation of CDC42,"[3]; BM lin− cells, 1 μg/mL DJ001, 10 min",did not alter the activation
same,CDC42-GTP level (G-LISA),[3]; Ptprs+/+ cells,0.2383 and 0.2517 and 0.2371
same,CDC42-GTP level (G-LISA),[3]; Ptprs-/- cells,0.1634 and 0.1869 and 0.1735
same,IFN-g,BM KSL cells; 300cGy,0.77
same,IL-1a,BM KSL cells; 300cGy,2.07 and 2.11
same,IL-1b,BM KSL cells; 300cGy,1.39
same,IL-2,BM KSL cells; 300cGy,2.9
same,IL-3,BM KSL cells; 300cGy,1
same,IL-4,BM KSL cells; 300cGy,0.44
same,IL-5,BM KSL cells; 300cGy,2.67
same,IL-6,BM KSL cells; 300cGy,0.77 and 1.04
same,IL-9,BM KSL cells; 300cGy,36.91
same,IL-10,BM KSL cells; 300cGy,2.29
same,IL-12(p40),BM KSL cells; 300cGy,1.77 and 1.44 and 2.31
same,IL-12(p70),BM KSL cells; 300cGy,3.42
same,IL-13,BM KSL cells; 300cGy,9.36
same,IL-17,BM KSL cells; 300cGy,1.92
same,IP-10,BM KSL cells; 300cGy,2.77
same,CXCL12,BM KSL cells; 300cGy,0
same,DKK,BM KSL cells; 300cGy,0
same,EGF,BM KSL cells; 300cGy,0
same,Eotaxin,BM KSL cells; 300cGy,2.69
same,G-CSF,BM KSL cells; 300cGy,0.01
same,GM-CSF,BM KSL cells; 300cGy,5.03
same,KC,BM KSL cells; 300cGy,1.04
same,M-CSF,BM KSL cells; 300cGy,1.85 and 2.24
same,MCP-1,BM KSL cells; 300cGy,4.52
same,MIG,BM KSL cells; 300cGy,3.11
same,MIP-1a,BM KSL cells; 300cGy,5.42 and 8.81
same,MIP-2,BM KSL cells; 300cGy,16
same,PTN,BM KSL cells; 300cGy,10.6601 and 9.687 and 10.9496
same,RANTES,BM KSL cells; 300cGy,3.97
same,TNF-a,BM KSL cells; 300cGy,4.73
same,VEGF,BM KSL cells; 300cGy,1.18
same,LIX levels following irradiation,"BM KSL cells; BM KSL cells, 12 h after 300 cGy, 1 μg/mL DJ001",decreased LIX levels
same,other cytokines in vitro,"BM KSL cells; BM KSL cells, 12 h culture, 1 μg/mL DJ001",no effects on any other cytokines
same,IFN-g,BM KSL cells; NI (non-irradiated),0.77
same,IL-1a,BM KSL cells; NI (non-irradiated),2.07
same,IL-1b,BM KSL cells; NI (non-irradiated),1.39
same,IL-2,BM KSL cells; NI (non-irradiated),2.9
same,IL-3,BM KSL cells; NI (non-irradiated),1
same,IL-4,BM KSL cells; NI (non-irradiated),0.44
same,IL-5,BM KSL cells; NI (non-irradiated),2.67
same,IL-6,BM KSL cells; NI (non-irradiated),0.77 and 1.04
same,IL-9,BM KSL cells; NI (non-irradiated),36.91
same,IL-10,BM KSL cells; NI (non-irradiated),2.29
same,IL-12(p40),BM KSL cells; NI (non-irradiated),1.13 and 2.12 and 1.6
same,IL-12(p70),BM KSL cells; NI (non-irradiated),3.42
same,IL-13,BM KSL cells; NI (non-irradiated),9.36
same,IL-17,BM KSL cells; NI (non-irradiated),1.92
same,IP-10,BM KSL cells; NI (non-irradiated),2.77
same,CXCL12,BM KSL cells; NI (non-irradiated),0
same,DKK,BM KSL cells; NI (non-irradiated),0
same,EGF,BM KSL cells; NI (non-irradiated),0
same,Eotaxin,BM KSL cells; NI (non-irradiated),2.69
same,G-CSF,BM KSL cells; NI (non-irradiated),0.01
same,GM-CSF,BM KSL cells; NI (non-irradiated),5.03
same,KC,BM KSL cells; NI (non-irradiated),1.04
same,M-CSF,BM KSL cells; NI (non-irradiated),1.85 and 2.71
same,MCP-1,BM KSL cells; NI (non-irradiated),4.52
same,MIG,BM KSL cells; NI (non-irradiated),3.11
same,MIP-1a,BM KSL cells; NI (non-irradiated),5.42 and 8.81
same,MIP-2,BM KSL cells; NI (non-irradiated),16
same,PTN,BM KSL cells; NI (non-irradiated),11.0625 and 10.3876 and 11.8896
same,RANTES,BM KSL cells; NI (non-irradiated),3.97
same,TNF-a,BM KSL cells; NI (non-irradiated),4.73
same,VEGF,BM KSL cells; NI (non-irradiated),1.18
